{
  "source": "ChEMBL document CHEMBL5537111",
  "about": "“Structure and function of SARS-CoV and SARS-CoV-2 main proteases and their inhibition: A comprehensive review” (Eur J Med Chem, 2023)",
  "key": {"[1]": {"target": "T1, Replicase polyprotein 1ab (Severe acute respiratory syndrome coronavirus 2, UniProt P0DTD1)"}, "SARS-CoV-2 [2]": {"test_system": "SARS-CoV-2", "test": "Antiviral activity against SARS-CoV-2 Omicron BA.1 infected in human A549-hACE2-TMPRSS2 cells assessed as reduction in viral replication pre-incubated with compound followed by viral infection measured after 72 hrs by ELISA assay", "format": "functional, organism-based", "details": "Severe acute respiratory syndrome coronavirus 2, Omicron BA.1, A549-hACE2-TMPRSS2"}, "[3]": {"target": "T1, Replicase polyprotein 1ab", "remark": "listed apart in the source"}, "SARS-CoV-2 [4]": {"test_system": "SARS-CoV-2", "test": "microbe, parasite or virus in culture", "details": "Severe acute respiratory syndrome coronavirus 2, Vero C1008"}, "SARS-CoV-2 [5]": {"test_system": "SARS-CoV-2", "format": "functional, organism-based", "details": "Severe acute respiratory syndrome coronavirus 2, Huh-7"}, "SARS-CoV-2 [6]": {"test_system": "SARS-CoV-2", "format": "functional, organism-based", "details": "Severe acute respiratory syndrome coronavirus 2, Huh-7, 72 h"}, "[7]": {"target": "T1, Replicase polyprotein 1ab", "remark": "listed apart in the source"}, "SARS-CoV-2 [8]": {"test_system": "SARS-CoV-2", "format": "functional, organism-based", "details": "Severe acute respiratory syndrome coronavirus 2, A549-ACE2"}, "SARS-CoV-2 [9]": {"test_system": "SARS-CoV-2", "test": "microbe, parasite or virus in culture", "details": "Severe acute respiratory syndrome coronavirus 2, Vero C1008", "remark": "listed apart in the source"}, "Replicase polyprotein 1a": {"target": "Replicase polyprotein 1a (Severe acute respiratory syndrome-related coronavirus, UniProt P0C6U8)"}, "SARS-CoV-2 [10]": {"test_system": "SARS-CoV-2", "test": "microbe, parasite or virus in culture", "details": "Severe acute respiratory syndrome coronavirus 2, Vero C1008, 72 h"}, "SARS-CoV": {"test_system": "SARS-CoV", "test": "microbe, parasite or virus in culture", "details": "Severe acute respiratory syndrome-related coronavirus, Vero C1008, 72 h"}, "[11]": {"target": "T1, Replicase polyprotein 1ab", "test": "Binding affinity to His-tagged SARS-CoV-2 Main protease BetaCoV/Wuhan/WIV04/2019 expressed in Escherichia coli BL21 (DE3) assessed as inhibition constant by FRET assay"}, "SARS-CoV-2 [12]": {"test_system": "SARS-CoV-2", "format": "functional, organism-based", "details": "Severe acute respiratory syndrome coronavirus 2, Vero C1008, 120 h"}, "SARS-CoV-2 [13]": {"test_system": "SARS-CoV-2", "format": "functional, organism-based", "details": "Severe acute respiratory syndrome coronavirus 2, Calu-3"}, "SARS-CoV-2 [14]": {"test_system": "SARS-CoV-2", "format": "functional, organism-based", "details": "Severe acute respiratory syndrome coronavirus 2, Vero"}, "SARS-CoV-2 [15]": {"test_system": "SARS-CoV-2", "format": "functional, organism-based", "details": "Severe acute respiratory syndrome coronavirus 2, Calu-3, 48 h"}, "SARS-CoV-2 [16]": {"test_system": "SARS-CoV-2", "test": "microbe, parasite or virus in culture", "details": "Severe acute respiratory syndrome coronavirus 2, B.1.1.7, Caco-2"}, "[17]": {"target": "T1, Replicase polyprotein 1ab", "test": "Binding affinity to SARS-CoV-2 MPro assessed as dissociation constant by FRET analysis"}, "A549": {"test_system": "A549", "test": "cells", "details": "Homo sapiens, A549, 72 h"}, "SARS-CoV-2 [18]": {"test_system": "SARS-CoV-2", "test": "microbe, parasite or virus in culture", "details": "Severe acute respiratory syndrome coronavirus 2, Vero C1008, 72 h", "remark": "listed apart in the source"}},
  "note": "Where a SMILES comes first, the peptide text is derived from it. The star is where a group is joined. Boc = CC(C)(C)OC(=O)*; OtBu = CC(C)(C)O*; CH2Cl = ClC*",
  "data": [
    {"smiles": "C=CC(=O)N(CCC(N)=O)NC(=O)[C@H](CC(C)C)NC(=O)[C@@H](NC(=O)OCc1ccccc1)[C@@H](C)OC(C)(C)C", "values": [
      {"measurement": "IC50", "setting": "[1]", "value": 34, "unit": "nM"},
      {"measurement": "EC50", "setting": "SARS-CoV-2 [2]", "value": 700, "unit": "nM"}
    ]},
    {"smiles": "O=C(NCc1ccc(O)c(F)c1)N1CCC(CN2CCc3ccccc32)CC1", "values": [
      {"measurement": "IC50", "setting": "[3]", "value": 730, "unit": "nM"},
      {"measurement": "EC50", "setting": "SARS-CoV-2 [4]", "value": 4980, "unit": "nM"}
    ]},
    {"smiles": "CN(C)C(=O)COc1ccc(-c2cccc3[nH]ncc23)cc1C=O", "values": [
      {"measurement": "EC50", "setting": "SARS-CoV-2 [4]", "value": 2500, "unit": "nM"}
    ]},
    {"smiles": "CC(C)(C)NC(=O)N[C@H](C(=O)N1C[C@H]2[C@@H]([C@H]1C(=O)N[C@@H](C[C@@H]1CCNC1=O)C(=O)C(N)=O)C2(C)C)C(C)(C)C", "values": [
      {"measurement": "EC50", "setting": "SARS-CoV-2 [5]", "value": 100, "unit": "nM"},
      {"measurement": "EC50", "setting": "SARS-CoV-2 [6]", "value": 100, "unit": "nM"}
    ]},
    {"smiles": "C[C@@H](OC(C)(C)C)[C@H](NC(=O)OCc1ccccc1)C(=O)N[C@@H](CC1CCCCC1)C(=O)NN(CCC(N)=O)C(=O)C(Cl)Cl", "values": [
      {"measurement": "IC50", "setting": "[7]", "value": 68000, "unit": "nM"},
      {"measurement": "EC50", "setting": "SARS-CoV-2 [8]", "value": 10, "unit": "nM"}
    ]},
    {"smiles": "CCOC(=O)c1cc(=O)oc2cc(O)c(O)cc12", "values": [
      {"measurement": "IC50", "setting": "[1]", "value": 46000, "unit": "nM"},
      {"measurement": "EC50", "setting": "SARS-CoV-2 [9]", "value": 112000, "unit": "nM"}
    ]},
    {"smiles": "CCCCC1CCC(COC(=O)N[C@@H](CC(C)C)C(=O)N[C@H](C=O)C[C@@H]2CCNC2=O)CC1", "note": "(stereo partly specified)", "values": [
      {"measurement": "IC50", "setting": "Replicase polyprotein 1a", "value": 900, "unit": "nM"},
      {"measurement": "IC50", "setting": "[1]", "value": 170, "unit": "nM"},
      {"measurement": "EC50", "setting": "SARS-CoV-2 [10]", "value": 150, "unit": "nM"}
    ]},
    {"smiles": "CNC(=O)c1ccc([C@H]2CCCCN2Cc2cccc(C(=O)N(C)C)c2)n1C", "values": [
      {"measurement": "IC50", "setting": "[3]", "value": 690, "unit": "nM"},
      {"measurement": "EC50", "setting": "SARS-CoV-2 [4]", "value": 8520, "unit": "nM"}
    ]},
    {"smiles": "Cc1c(O)cccc1C(=O)N[C@@H](CSc1ccccc1)[C@H](O)CN1C[C@H]2CCCC[C@H]2C[C@H]1C(=O)NC(C)(C)C", "values": [
      {"measurement": "EC50", "setting": "SARS-CoV", "value": 770, "unit": "nM"}
    ]},
    {"smiles": "C[C@H](NC(=O)[C@H](Cc1ccccc1)NC(=O)OCc1ccccc1)C(=O)[C@H]1CO1", "values": [
      {"measurement": "Ki", "setting": "[11]", "value": 2200, "unit": "nM"},
      {"measurement": "EC50", "setting": "SARS-CoV-2 [12]", "value": 12000, "unit": "nM"}
    ]},
    {"smiles": "CC(C)(C)OC(=O)CC[C@H](NC(=O)CNC(=O)OC(C)(C)C)C(=O)CCl", "note": "(Boc-Gly-Glu(OtBu)-CH2Cl)", "values": [
      {"measurement": "EC50", "setting": "SARS-CoV-2 [2]", "value": 50300, "unit": "nM"},
      {"measurement": "EC50", "setting": "SARS-CoV-2 [8]", "value": 26000, "unit": "nM"}
    ]},
    {"smiles": "COC(=O)N[C@H](C(=O)N[C@@H](Cc1ccccc1)[C@@H](O)CN(Cc1ccc(-c2ccccn2)cc1)NC(=O)[C@@H](NC(=O)OC)C(C)(C)C)C(C)(C)C", "note": "[ATAZANAVIR]", "values": [
      {"measurement": "EC50", "setting": "SARS-CoV-2 [12]", "value": 2000, "unit": "nM"},
      {"measurement": "EC50", "setting": "SARS-CoV-2 [13]", "value": 320, "unit": "nM"}
    ]},
    {"smiles": "COC(=O)[C@]12CCC(C)(C)C[C@H]1[C@H]1C(=O)C=C3[C@@]4(C)C=C(C#N)C(=O)C(C)(C)[C@@H]4CC[C@@]3(C)[C@]1(C)CC2", "note": "[BARDOXOLONE METHYL]", "values": [
      {"measurement": "IC50", "setting": "[1]", "value": 5810, "unit": "nM"},
      {"measurement": "EC50", "setting": "SARS-CoV-2 [14]", "value": 290, "unit": "nM"},
      {"measurement": "EC50", "setting": "SARS-CoV-2 [15]", "value": 200, "unit": "nM"}
    ]},
    {"smiles": "C=C(C)[C@@H]1CC[C@]2(C(=O)O)CC[C@]3(C)[C@H](CC[C@@H]4[C@@]5(C)CC[C@H](O)C(C)(C)[C@@H]5CC[C@]43C)[C@@H]12", "note": "[BETULINIC ACID]", "values": [
      {"measurement": "IC50", "setting": "[1]", "value": 10000, "unit": "nM"},
      {"measurement": "EC50", "setting": "SARS-CoV-2 [9]", "value": "> 10000", "unit": "nM"}
    ]},
    {"smiles": "CC(C)(C)NC(=O)N[C@H](C(=O)N1C[C@H]2[C@@H]([C@H]1C(=O)NC(CC1CCC1)C(=O)C(N)=O)C2(C)C)C(C)(C)C", "note": "(stereo partly specified) [BOCEPREVIR]", "values": [
      {"measurement": "IC50", "setting": "Replicase polyprotein 1a", "value": 6630, "unit": "nM"},
      {"measurement": "EC50", "setting": "SARS-CoV-2 [10]", "value": 15600, "unit": "nM"},
      {"measurement": "EC50", "setting": "SARS-CoV-2 [4]", "value": 15600, "unit": "nM"},
      {"measurement": "EC50", "setting": "SARS-CoV-2 [16]", "value": 2970, "unit": "nM"}
    ]},
    {"smiles": "CC(C)c1nc(CN(C)C(=O)N[C@@H](CCN2CCOCC2)C(=O)N[C@H](CC[C@H](Cc2ccccc2)NC(=O)OCc2cncs2)Cc2ccccc2)cs1", "note": "[COBICISTAT]", "values": [
      {"measurement": "IC50", "setting": "[1]", "value": 6700, "unit": "nM"},
      {"measurement": "EC50", "setting": "SARS-CoV-2 [12]", "value": 2740, "unit": "nM"},
      {"measurement": "Kd", "setting": "[17]", "value": 2200, "unit": "nM"}
    ]},
    {"smiles": "CC(=O)[C@@]1(O)CC[C@H]2[C@@H]3CCC4=CC(=O)CC[C@]4(C)[C@H]3CC[C@@]21C", "note": "[HYDROXYPROGESTERONE]", "values": [
      {"measurement": "IC50", "setting": "[1]", "value": 2470, "unit": "nM"},
      {"measurement": "EC50", "setting": "SARS-CoV-2 [9]", "value": 2770, "unit": "nM"}
    ]},
    {"smiles": "Cc1ccc(NC(=O)c2ccc(CN3CCN(C)CC3)cc2)cc1Nc1nc(-c2cccnc2)cs1", "note": "[MASITINIB]", "values": [
      {"measurement": "EC50", "setting": "A549", "value": 3200, "unit": "nM"}
    ]},
    {"smiles": "O=c1c(O)c(-c2cc(O)c(O)c(O)c2)oc2cc(O)cc(O)c12", "note": "[MYRICETIN]", "values": [
      {"measurement": "EC50", "setting": "SARS-CoV-2 [9]", "value": 8000, "unit": "nM"}
    ]},
    {"smiles": "CCOc1cc2ncc(C#N)c(Nc3ccc(F)c(Cl)c3)c2cc1NC(=O)/C=C/CN(C)C", "note": "[PELITINIB]", "values": [
      {"measurement": "EC50", "setting": "SARS-CoV", "value": 1250, "unit": "nM"}
    ]},
    {"smiles": "CC1(C)CCC(CN2CCN(c3ccc(C(=O)NS(=O)(=O)c4ccc(NCC5CCOCC5)c([N+](=O)[O-])c4)c(Oc4cnc5[nH]ccc5c4)c3)CC2)=C(c2ccc(Cl)cc2)C1", "note": "[VENETOCLAX]", "values": [
      {"measurement": "EC50", "setting": "SARS-CoV-2 [18]", "value": 1180, "unit": "nM"}
    ]}
  ]
}
